Measured values reported in patent US20170226142A1 (Achillion Pharmaceuticals, Inc., priority 2014, published 2017).
Like-named read-outs stand apart in the source and are kept apart here.

Biological target: T1, Human factor D (Homo sapiens, UniProt P00746)
T1 construct: purified from human serum; purchased Complement Technology, Inc; host or cells: human serum
Assay: Human Factor D Assay (Factor D inhibition assay)
Type: biochemical
Description: Routine changes in starting materials and reaction conditions, readily apparent to those of skill in the art, were used to make the particular compounds disclosed in Table 2.
Human factor D (purified from human serum, Complement Technology, Inc.) at 80 nM final concentration is incubated with test compound at various concentrations for 5 minutes at room temperature in 50 mM Tris, 1M NaCl, pH 7.5. A synthetic substrate Z-L-Lys-SBzl and DTNB (Ellman's reagent) are added to final concentrations of 100 µM each. The increase in color is recorded at OD405 nm in a microplate in kinetic mode over 30 minutes with 30 second time points in a […]. IC50 values are calculated by non-linear regression from the percentage of inhibition of complement factor D activity as a function of test compound concentration.

[1] = Factor D 80 nM, substrate Z-L-Lys-SBzl, DTNB, pH 7.5, read-out: IC50

T1 sequence (P00746 26-253): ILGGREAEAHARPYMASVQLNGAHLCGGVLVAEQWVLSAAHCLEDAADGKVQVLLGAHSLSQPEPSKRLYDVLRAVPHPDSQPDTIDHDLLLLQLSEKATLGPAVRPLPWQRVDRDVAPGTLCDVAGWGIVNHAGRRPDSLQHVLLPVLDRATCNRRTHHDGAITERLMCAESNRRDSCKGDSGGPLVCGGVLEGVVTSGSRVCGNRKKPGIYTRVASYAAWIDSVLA

| Structure (SMILES) | IC50 [1] [µM] | other results |
| --- | --- | --- |
| C=CC1C[C@]1(NC(=O)[C@@H]1C[C@@H](F)CN1C(=O)Cn1cc(C(C)=O)c2ccc(O)cc21)C(=O)NS(=O)(=O)C1CC1 (stereo partly drawn) [Compound 88, (2S,4R)-1-(2-(3-acetyl-6-hydroxy-1H-indol-1-yl)acetyl)-N-((1R)-1-(cyclopropylsulfonylcarbamoyl)-2-vinylcyclopropyl)-4-fluoropyrrolidine-2-carboxamide] | 1 to 10 |  |
| CC(=O)c1nn(CC(=O)N2C[C@H](F)C[C@H]2C(=O)Nc2cccc(SC(F)(F)F)c2)c2cnccc12 [Compound 53, (2S,4R)-1-(2-(3-acetyl-1H-pyrazolo[3,4-c]pyridin-1-yl)acetyl)-4-fluoro-N-(3-((trifluoro-methyl)thio)phenyl)pyrrolidine-2-carboxamide] | < 1 |  |
| NC(=O)c1nn(CC(=O)N2C[C@H](F)C[C@H]2C(=O)Nc2cccc(-c3ccccc3Cl)c2F)c2cc(C(=O)NS(=O)(=O)C3CC3)ccc12 [Compound 212] |  | IC50 (pH 7.5, read-out: IC50): < 1 µM |
| CCOP(=O)(OCC)c1ccc2c(C(C)=O)cn(CC(=O)N3[C@@H]4CCC[C@@H]4C[C@H]3C(=O)NCc3cccc(Cl)c3F)c2c1 [Compound 76, diethyl 1-(2-((2S,3aR,6aR)-2-((3-chloro-2-fluorobenzyl)carbamoyl)-hexahydrocyclopenta[b]pyrrol-1(2H)-yl)-2-oxoethyl)-3-acetyl-1H-indol-6-ylphosphonate] |  | IC50 (read-out: IC50): < 1 µM |
| O=C(NCc1cccc(Cl)c1F)[C@@H]1C[C@@H](F)CN1C(=O)Cn1nc(P(=O)(O)O)c2ccncc21 [Compound 65] | > 10 |  |
| CC(=O)c1cn(CC(=O)N2C[C@H](F)C[C@H]2C(=O)NCc2cccc(Cl)c2F)c2ccc(NC(=O)OC3CC3)cc12 [Compound 186, cyclopropyl (3-acetyl-1-(2-((2S,4R)-2-((3-chloro-2-fluorobenzyl)carbamoyl)-4-fluoropyrrolidin-1-yl)-2-oxoethyl)-1H-indol-5-yl)carbamate] | < 1 |  |
| CC(=O)c1cn(CC(=O)N2CCOC[C@H]2C(=O)NCc2cccc(Cl)c2F)c2cc(C(=O)O)ccc12 [Compound 159, (S)-1-(2-(3-((3-chloro-2-fluorobenzyl)carbamoyl)morpholino)-2-oxoethyl)-3-acetyl-1H-indole-6-carboxylic acid] | < 1 |  |
| CC(=O)c1cn(CC(=O)N2C[C@H](F)C[C@H]2C(=O)Nc2cccc(Oc3ccccc3)c2)c2cc(OCP(=O)(O)O)ccc12 [Compound 232, (((3-acetyl-1-(2-((2S,4R)-4-fluoro-2-((3-phenoxyphenyl)carbamoyl)pyrrolidin-1-yl)-2-oxoethyl)-1H-indol-6-yl)oxy)methyl)phosphonic acid] |  | IC50: 1 to 10 µM |
| CC(=O)c1cn(CC(=O)N2C[C@H](F)C[C@H]2C(=O)NCc2cccc(Cl)c2F)c2ccc(C#Cc3cccc(OC(F)(F)F)c3F)cc12 [Compound 177, (2S,4R)-1-(2-(3-acetyl-5-((2-fluoro-3-(trifluoromethoxy)phenyl)ethynyl)-1H-indol-1-yl)acetyl)-N-(3-chloro-2-fluorobenzyl)-4-fluoropyrrolidine-2-carboxamide] | 1 to 10 |  |
